Laboratory results from patent publication US7524885B2, “Compounds that stimulate glucose utilization and methods of use” (The Governors of the University of Alberta, priority 2002, dated 2009).

Tested on: not given
Assay: not given
Settings: cited from earlier work

SMILES | biological half-life (in words)
O=C(O)C(Cl)Cl [DCA, dichloroacetate] | short biological half-life

Tested on: isolated working rat heart
Assay: Glucose oxidation in isolated perfused working rat heart ([U-14C]glucose, 14CO2 production)
Settings: Table 2B; screening concentration 100 μM; isolated working rat heart; read-out: Glucose Oxidation (% above control)
Description: Rat hearts were cannulated for isolated working heart 60 minute aerobic perfusions as described in J Pharmacol Exp Ther. 1993; 264:135-144, the entire disclosure of which is incorporated herein by reference.
Male Sprague-Dawley rats (0.3-0.35 kg) were anesthetized with pentobarbital sodium (60 mg/kg IP) and hearts were quickly excised, the aorta was cannulated and a retrograde perfusion at 37° C. was initiated at a hydrostatic pressure of 60 mm Hg. Hearts were trimmed of excess tissue, and the pulmonary artery and the opening to the left atrium were then cannulated. After 15 min of Langendorff perfusion, hearts were switched to the working mode by clamping the aortic inflow line from the Langendorff reservoir and opening the left atrial inflow line. The perfusate was delivered from an oxygenator into the left atrium at a constant preload pressure of 11 mm Hg. Perfusate was ejected from spontaneously beating hearts into a compliance chamber (containing 1 ml of air) and into the aortic outflow line. The afterload was set at a hydrostatic pressure of 80 mm Hg. All working hearts were perfused with Krebs'-Henseleit solution containing calcium 2.5 mmol/L, glucose 5.5 mmol/L, 3% bovine serum albumin (fatty acid free, initial fractionation by heat shock, Sigma), and with 1.2 mmol/L palmitate. Palmitate was bound to the albumin as described in J Bio Chem. 1992; 267:3825-3831, the entire disclosure of which is incorporated herein by reference.
The perfusate was recirculated, and pH was adjusted to 7.4 by bubbling with a mixture containing 95% O2 and 5% CO2.
Spontaneously beating hearts were used in all perfusions. Heart rate and aortic pressure were measured with a Biopac Systems Inc. blood pressure transducer connected to the aortic outflow line. Cardiac output and aortic flow were measured with Transonic T206 ultrasonic flow probes in the preload and afterload lines, respectively. Coronary flow was calculated as the difference between cardiac output and aortic flow. Cardiac work was calculated as the product of systolic pressure and cardiac output.
Measurement of Glucose Oxidation: Glucose oxidation was measured simultaneously by perfusing hearts with [U-^14C] glucose according to the procedures discussed in Saddik M, et al., J Bio Chem. 1992; 267:3825-3831. The entire disclosure of this reference is incorporated herein by reference. The total myocardial ^14CO2 production was determined at 10-min intervals from the 60-min aerobic period. Glucose oxidation rates were determined by quantitative measurement of ^14CO2 production as described in Barbour RL, et al., Biochemistry. 1984; […]. The entire disclosure of this reference is incorporated herein by reference. ^14CO2 production for the control group were compared with the ^14CO2 production for the group treated with cyclopropanecarboxylic acid, 2-[2-(2-methoxy-ethoxy)-ethoxy]-ethyl ester. Results are shown on FIG. 1 and TABLE 2A.
The procedure of Example A for was followed except that cyclobutanecarboxylic acid, 2-[2-(2-methoxy-ethoxy)-ethoxy]-ethyl ester in 1 μM, 10 μM, 100 μM and 1000 μM amounts was added to the buffer in place of the cyclopropanecarboxylic acid, 2-[2-(2-methoxy-ethoxy)-ethoxy]-ethyl ester. The results are illustrated in FIG. 2 and TABLE 2A.
The procedure of Example A was followed except that cyclopropanecarboxylic acid, 2-isopropoxy-ethyl ester in 1 μM, 10 μM, 100 μM and 1000 μM amounts was added to the buffer in place of the cyclopropanecarboxylic acid, 2-[2-(2-methoxy-ethoxy)-ethoxy]-ethyl ester. The results are illustrated in FIG. 3 and TABLE 2A.
The procedure of Example A was followed except that various cyclobutanecarboxylic acid derivatives, cyclopropanecarboxylic acid derivatives and cyclobutanecarboxylic acid in the amounts of 100 μM or 1000 μM was added to the buffer in place of the cyclopropanecarboxylic acid, 2-[2-(2-methoxy-ethoxy)-ethoxy]-ethyl ester.

SMILES | activation at 100 µM
CCC1(COC(=O)C2CC2)COCOC1 [Compound 40MM093, Cyclopropanecarboxylic acid 5-ethyl-[1,3]-dioxan-5.ylmethyl ester] | 260%
O=C(OCC1COc2ccccc2O1)C1CC1 (stereo not shown) [Compound 41MM094, Cyclopropanecarboxylic acid 2,3-dihydro-benzo(1,4)dioxin-2-ylmethyl ester] | 389%
O=C(SCc1ccco1)C1CC1 [Compound 42MM095, Cyclopropanecarbothioic acid S-furan-2-yl methyl ester] | 314%
CCOCCOC(=O)C1(c2ccc(OC)cc2)CC1 [Compound 43MM096, 1-(4-methoxy-phenyl)-cyclopropanecarboxylic acid 2-ethoxy-ethyl ester] | 93%
COCCOCCOCCOC(=O)C1(c2ccccc2)CC1 [Compound 44MM097, 1-phenyl-cyclopropanecarboxylic acid 2[2-(2-methoxy-ethoxy)-ethoxy]-ethyl ester] | 125%
O=C(OCCOC(=O)C1CC1)C1CC1 [Compound 45MM098, Cyclopropanecarboxylic acid 2-cyclopropanecarbonyloxy-ethyl ester] | 358%
O=C(OCCOC(=O)C1(c2ccccc2)CC1)C1(c2ccccc2)CC1 [Compound 46MM099, 1-(1-Phenyl-1-cyclopropanecarboxylic acid)-2-(1-phenyl-1-cyclopropanecarbonyloxy)-ethyl ester] | 93%

Same assay, conditions: intact heart

SMILES | stimulation of glucose oxidation in the heart (in words)
O=C(O)C1CC1 [MM001, Cyclopropanecarboxylic acid] | stimulator of glucose oxidation
O=C(O)C1CCC1 [MM013, Cyclobutanecarboxylic acid] | stimulate glucose oxidation
